Results taken from PMC10056636, “3-Amino-Substituted Analogues of Fusidic Acid as Membrane-Active Antibacterial Compounds” (Membranes, 2023).
In brackets after ≈: the same amount, converted by molar mass. Where two headings read alike, the source gives them in different places.

Experiments:
in vitro = assay type: cell-based, human; conditions: human, CC50
Procedure: (§1) HEK293 cells were counted manually in a Neubauer hemocytometer and then plated in 384-well plates containing the test compounds to give a density of 5000 cells per well in a final volume of 50 µL. DMEM supplemented with 10% FBS was used as the growth medium, and the cells were incubated together with the compounds for 20 h at 37 °C in 5% CO2.
(§2) The cytotoxicity (or cell viability) was measured by fluorescence, ex: 560/10 nm, em: 590/10 nm (F560/590), after addition of 5 µL of 25 µg/mL resazurin (2.3 µg/mL final concentration) and after incubation for further 3 h at 37 °C in 5% CO2. The fluorescence intensity was measured using a Tecan M1000 Pro monochromator plate reader with automatic gain control. The CC50 (50% cytotoxicity concentration) values were calculated by curve fitting of inhibition vs. log(concentration) using a sigmoidal dose–response function, with variable fitting values for bottom, top, and slope. In addition, the maximal percentage of cytotoxicity is reported as DMax, indicating any compounds with partial cytotoxicity. The curve fitting was implemented using Pipeline Pilot’s dose–response component. The results were similar to those obtained by other curve-fitting tools, such as GraphPad’s Prism and IDBS’s XlFit. Any value with > indicated samples with no activity (low DMax value) or samples with CC50 values above the maximum tested concentration (higher DMax value).
(§3) In addition, samples were flagged as partially cytotoxic if DMax ≥ 50%, even for CC50 > the maximum tested concentration.
(§4) Tamoxifen served as a positive cytotoxicity standard. Melittin was used as a positive hemolytic standard.

[1] = system: human embryonic kidney cell line HEK293 (ATCC CRL-1573); experiment: in vitro; assay type: cell-based; conditions: for CC50: human, 20 h
Procedure: as §1, §2, §3, §4

Hemolysis assay = assay type: cell-based, human; conditions: for hemolysis at 1 h: human, Dmax (maximal percentage of hemolysis)
Procedure: (§5) Human whole blood was washed three times with 3 volumes of 0.9% NaCl and then resuspended in the same medium to a concentration of 0.5 × 10^8 cells/mL, as determined by manual cell count in a Neubauer hemocytometer. The washed cells were then added to 384-well plates containing the test compounds to a final volume of 50 µL. After shaking on a plate shaker for 10 min, the plates were incubated for 1 h at 37 °C. After incubation, the plates were centrifuged at 1000× g for 10 min to pellet the cells and debris; 25 µL of the supernatant was then transferred to a polystyrene 384-well assay plate.
(§6) Hemolysis was monitored by measuring the supernatant absorbance at […] (OD405). The absorbance was measured using a Tecan M1000 Pro monochromator plate reader. HC10 and HC50 (10% and 50% hemolysis concentrations, respectively) were calculated by curve fitting of inhibition vs. log(concentration) using a sigmoidal dose–response function with variable fitting values for top, bottom, and slope. In addition, the maximal percentage of hemolysis is reported as DMax, indicating any compounds with partial hemolysis. The curve fitting was implemented using Pipeline Pilot’s dose–response component. […] Any value with > indicated sample with no activity (low DMax value) or samples with HC10 values above the maximum tested concentration (higher DMax value).
(§7) In addition, samples were flagged as partially hemolytic if DMax ≥ 50%, even for HC10 > the maximum tested concentration. […]

human red blood cells = experiment: Hemolysis assay; assay type: cell-based; conditions: human, 1 h
Procedure: as §5, §6, §7

[2] = system: Staphylococcus aureus (ATCC 43300) (MRSA); experiment: Antibacterial whole-cell growth inhibition (MIC, CO-ADD); assay type: cell-based; conditions: for primary screening: antimicrobial activity: S. aureus (MRSA), primary screen at 32 μg/mL
Procedure: (§8) Antibacterial screening was carried out by the serial dilution method. All bacteria were cultured in the cation-adjusted Mueller Hinton broth (CAMHB) at 37 °C overnight. A sample of each culture was then diluted 40-fold in fresh broth and incubated at 37 °C for 1.5–3 h. The resultant mid-log phase cultures were diluted (CFU/mL measured by OD600) and then added into each well containing a test compound, giving a cell density of 5 × 10^5 CFU/mL and a total volume of 50 µL. All the plates were covered and incubated at 37 °C for 18 h without shaking.
(§9) Inhibition of bacterial growth was determined by measuring the absorbance at 600 nm (OD600) with a Tecan M1000 Pro monochromator plate reader. […]

[3] = system: Acinetobacter baumannii (ATCC 19606); experiment: as above; assay type: cell-based; conditions: A. baumannii, two replicates per cell
Procedure: as §8, §9

[4] = system: Escherichia coli (ATCC 25922); experiment: as above; assay type: cell-based; conditions: E. coli, two replicates per cell
Procedure: as §8, §9

[5] = system: Pseudomonas aeruginosa (ATCC 27853); experiment: as above; assay type: cell-based; conditions: P. aeruginosa, two replicates per cell
Procedure: as §8, §9

[6] = system: Candida albicans (ATCC 90028); experiment: Antifungal growth inhibition (MIC, CO-ADD); assay type: cell-based
[7] = system: Cryptococcus neoformans (ATCC 208821); experiment: Antifungal growth inhibition (MIC, CO-ADD); conditions: for MIC: inhibition ≥70%, two replicates per cell; for primary screening: growth inhibition: primary screen at 32 μg/mL
Procedure: Antimicrobial, cytotoxicity, and hemolytic activity screening of the synthesized derivatives was carried out in the CO-ADD (The Community for Antimicrobial Drug Discovery) (http://www.co-add.org, accessed on 24 November 2020) and included analysis for antibacterial properties, cytotoxicity, and hemolytic activity.
The hit confirmation test included five bacteria, Escherichia coli (ATCC 25922), Klebsiella pneumoniae (ATCC 700603), Acinetobacter baumannii (ATCC 19606), Pseudomonas aeruginosa (ATCC 27853), and Staphylococcus aureus (ATCC 43300), and two fungi, Candida albicans (ATCC 90028) and Cryptococcus neoformans (ATCC 208821). […] The compounds were also screened for hemolysis of human red blood cells (human whole blood, strain ARCBS 5400 00150).
Samples were prepared in DMSO and water to a final testing concentration of 32 µg/mL or 20 µM (unless otherwise indicated in the data sheet) and serially diluted twofold up to 8 times. Each sample concentration was prepared in 384-well plates: non-binding surface plate (NBS; Corning 3640) for each bacterial/fungal strain, tissue-culture treated (TC-treated; Corning 3712/3764) black for mammalian cell types and polypropylene 384-well plates (PP; Corning 3657) for hemolysis assays. The final DMSO concentration was maintained to a maximum of 0.5%. All sample preparation procedures were performed using liquid-handling robots. All screening was performed as two replica (n = 2), with both replicas on different assay plates, but from single plating and performed in a single screening experiment (microbial incubation). In addition, two values are used as quality controls for individual plates: Z′-Factor [1 − (3* (sd(NegCtrl) + sd(PosCtrl))/(average(PosCtrl)-average(NegCtrl)))] and standard antibiotic controls at different concentrations (>MIC and <MIC).
Fungi strains were cultured for 3 days on yeast extract-peptone dextrose (YPD) agar at 30 °C. A yeast suspension of 1 × 10^6 to 5 × 10^6 CFU/mL (as determined by OD530) was prepared from five colonies. The suspension was subsequently diluted and added to each well containing a test compound, giving a final cell density of fungi suspension of 2.5 × 10^3 CFU/mL and a total volume of 50 µL. All plates were covered and incubated at 35 °C for 36 h without shaking.
The absorbance was measured using a Biotek Multiflo Synergy HTX plate reader. In both cases, the percentage of growth inhibition was calculated for each well, using the negative control (media only) and positive control (fungi without inhibitors) in the same plate. […] In addition, the maximal percentage of growth inhibition is reported as DMax, indicating any compounds with marginal activity.
Fluconazole was used as a positive fungal inhibitor standard for C. albicans and C. neoformans. […] The quality control (QC) of the assays was performed using Z′-factors calculated from the negative (media only) and positive controls (bacterial, fungal, or cell culture without inhibitor) and the standards.

[8] = Staphylococcus aureus, S. aureus (MRSA) ATCC 43300, inhibition ≥80%, two replicates (n = 2), read-out: MIC
[9] = S. aureus (MRSA) ATCC 43300, inhibition ≥80%, two replicates (n = 2)
[10] = Acinetobacter baumannii, ATCC19606, read-out: MIC
[11] = Escherichia coli, ATCC25922, read-out: MIC
[12] = Pseudomonas aeruginosa, ATCC27853, read-out: MIC
[13] = C. albicans, inhibition ≥80%, two replicates per cell
[14] = Candida albicans, ATCC90028, C. albicans, inhibition ≥80%, two replicates per cell, read-out: MIC
[15] = Cryptococcus neoformans, ATCC208821, C. neoformans

Compound | CC50 at 20 h (in vitro) | CC50 [1] | hemolysis at 1 h (Hemolysis assay) | Dmax (maximal percentage of hemolysis) (human red blood cells) | HC50 (human red blood cells) | primary screening: antimicrobial activity [2] | MIC [2, 8] | MIC [2, 9] | further results
CC/C(=C(\c1ccccc1)c1ccc(OCCN(C)C)cc1)c1ccccc1 [Tamoxifen, reference compound] | 9 µg/mL (≈ 24.2 µM) | – | – | – | – | – | – | – | Dmax (maximal percentage of cytotoxicity) [1]: 50%
CC(=O)O[C@H]1C[C@@]2(C)[C@@H](CC(=O)[C@H]3[C@@]4(C)CC[C@H](N5CCCC5)[C@@H](C)[C@@H]4CC[C@@]32C)/C1=C(\CCC=C(C)C)C(=O)O [Compound 7] | > 32 µg/mL | >32 >32 µg/mL | 2.3% | 2.6% | >32 >32 µg/mL | showed antimicrobial activity | 8 µg/mL (≈ 14.1 µM) | – | –
CCCCN[C@H]1CC[C@@]2(C)[C@@H](CC[C@@]3(C)[C@H]2[C@H](O)C[C@H]2/C(=C(\CCC=C(C)C)C(=O)OC)[C@@H](OC(C)=O)C[C@@]23C)[C@@H]1C [Compound 14] | 26 µg/mL (≈ 44.4 µM) | 23.8 µg/mL (≈ 40.6 µM) | 3.4% | 3.6% | >32 >32 µg/mL | showed antimicrobial activity | 32 µg/mL (≈ 54.6 µM) | 32 µg/mL (≈ 54.6 µM) | –
CN[C@H](CC(C)C)C(=O)N[C@H]1C(=O)N[C@@H](CC(N)=O)C(=O)N[C@H]2C(=O)N[C@H]3C(=O)N[C@H](C(=O)N[C@H](C(=O)O)c4cc(O)cc(O)c4-c4cc3ccc4O)[C@H](O)c3ccc(c(Cl)c3)Oc3cc2cc(c3O[C@@H]2O[C@H](CO)[C@@H](O)[C@H](O)[C@H]2O[C@H]2C[C@](C)(N)[C@H](O)[C@H](C)O2)Oc2ccc(cc2Cl)[C@H]1O [Vancomycin, reference compound] | – | – | – | – | – | – | – | – | MIC ([2]; Staphylococcus aureus): 1 µg/mL (≈ 0.69 µM)
CC(=O)O[C@H]1C[C@@]2(C)[C@@H](C[C@@H](O)[C@H]3[C@@]4(C)CC[C@H](NCCCNCCCCNCCCN)[C@@H](C)[C@@H]4CC[C@@]32C)/C1=C(\CCC=C(C)C)C(=O)O [Compound 21] | 24.2 µg/mL (≈ 34.5 µM) | > 32 µg/mL | 8.7% | 6.4% | >32 >32 µg/mL | – | 2 to 8 µg/mL (≈ 2.85 to 11.4 µM) | – | MIC [3]: 32 µg/mL (≈ 45.6 µM); MIC [3, 10]: 32 µg/mL (≈ 45.6 µM); MIC [4]: 32 µg/mL (≈ 45.6 µM); MIC [4, 11]: 32 µg/mL (≈ 45.6 µM); MIC [5]: 32 µg/mL (≈ 45.6 µM); MIC [5, 12]: 32 µg/mL (≈ 45.6 µM); MIC [6, 13]: 32 µg/mL (≈ 45.6 µM); MIC [6, 14]: 32 µg/mL (≈ 45.6 µM)
OC(Cn1cncn1)(Cn1cncn1)c1ccc(F)cc1F [Fluconazole, reference compound] | – | – | – | – | – | – | – | – | MIC [7, 15]: 8 µg/mL (≈ 26.1 µM); MIC ([6]; Candida albicans, ATCC90028): 0.125 µg/mL (≈ 0.408 µM)
Colistin [reference compound] | – | – | – | – | – | – | – | – | MIC [3]: 0.25 µg/mL; MIC [4]: 0.125 µg/mL; MIC [5]: 0.25 µg/mL
CC(=O)O[C@H]1C[C@@]2(C)[C@@H](C[C@@H](O)[C@H]3[C@@]4(C)CC[C@H](NCCCNCCCCN)[C@@H](C)[C@@H]4CC[C@@]32C)/C1=C(\CCC=C(C)C)C(=O)O [Compound 19] | > 32 µg/mL | >32 >32 µg/mL | 5.5% | 5.3% | >32 >32 µg/mL | – | – | 32 µg/mL (≈ 49.7 µM) | MIC [3]: >32 >32 µg/mL; MIC [3, 10]: > 32 µg/mL; MIC [4]: >32 >32 µg/mL; MIC [4, 11]: > 32 µg/mL; MIC [5]: >32 >32 µg/mL; MIC [5, 12]: > 32 µg/mL; MIC [6, 13]: >32 >32 µg/mL; MIC [6, 14]: > 32 µg/mL
COC(=O)/C(CCC=C(C)C)=C1\[C@@H](OC(C)=O)C[C@@]2(C)[C@H]1C[C@@H](O)[C@H]1[C@@]3(C)CC[C@H](NCCN)[C@@H](C)[C@@H]3CC[C@@]12C [Compound 12] | 7.77 µg/mL (≈ 13.6 µM) | 13.2 µg/mL (≈ 23 µM) | 34.8% | 27.8% | >32 >32 µg/mL | showed antimicrobial activity | 32 µg/mL (≈ 55.9 µM) | 32 µg/mL (≈ 55.9 µM) | MIC ([7]; C. neoformans): 16 µg/mL (≈ 27.9 µM); primary screening: growth inhibition ([7]; C. neoformans): inhibited the growth; MIC [7, 15]: 16 µg/mL (≈ 27.9 µM)
CC[C@H](C)[C@H](NC(=O)CN)C(=O)NCC(=O)N[C@@H](C)C(=O)N[C@H](C(=O)N[C@@H](CC(C)C)C(=O)N[C@@H](CCCCN)C(=O)N[C@H](C(=O)N[C@@H](CC(C)C)C(=O)N[C@H](C(=O)N[C@H](C(=O)NCC(=O)N[C@@H](CC(C)C)C(=O)N1CCC[C@H]1C(=O)N[C@@H](C)C(=O)N[C@@H](CC(C)C)C(=O)N[C@H](C(=O)N[C@@H](CO)C(=O)N[C@@H](Cc1c[nH]c2ccccc12)C(=O)N[C@H](C(=O)N[C@@H](CCCCN)C(=O)N[C@@H](CCCNC(=N)N)C(=O)N[C@@H](CCCCN)C(=O)N[C@@H](CCCNC(=N)N)C(=O)N[C@@H](CCC(N)=O)C(=O)N[C@@H](CCC(N)=O)C(N)=O)[C@@H](C)CC)[C@@H](C)CC)[C@@H](C)O)[C@@H](C)O)C(C)C)C(C)C [Melittin, reference compound] | – | – | – | – | – | – | – | – | hemolysis (Hemolysis assay; human erythrocytes, two replicates per cell, read-out: Dmax (maximal percentage of hemolysis)): 50%
CC(=O)O[C@H]1C[C@@]2(C)[C@@H](CC(=O)[C@H]3[C@@]4(C)CCC(=O)[C@@H](C)[C@@H]4CC[C@@]32C)/C1=C(\CCC=C(C)C)C(=O)O [Compound 1] | > 32 µg/mL | >32 >32 µg/mL | 7.3% | 10.6% | >32 >32 µg/mL | showed antimicrobial activity | 8 µg/mL (≈ 15.6 µM) | – | –
CC(=O)O[C@H]1C[C@@]2(C)[C@@H](CC(=O)[C@H]3[C@@]4(C)CC[C@H](NCc5ccccc5)[C@@H](C)[C@@H]4CC[C@@]32C)/C1=C(\CCC=C(C)C)C(=O)O [Compound 9] | > 32 µg/mL | >32 >32 µg/mL | 3.7% | 2.3% | >32 >32 µg/mL | showed antimicrobial activity | 8 µg/mL (≈ 13.2 µM) | – | –
COC(=O)/C(CCC=C(C)C)=C1\[C@@H](OC(C)=O)C[C@@]2(C)[C@H]1C[C@@H](O)[C@H]1[C@@]3(C)CC[C@H](NCc4ccccc4)[C@@H](C)[C@@H]3CC[C@@]12C [Compound 18] | 17.8 µg/mL (≈ 28.7 µM) | 17.5 µg/mL (≈ 28.2 µM) | – | – | >32 >32 µg/mL | showed antimicrobial activity | 16 µg/mL (≈ 25.8 µM) | 16 µg/mL (≈ 25.8 µM) | MIC ([7]; C. neoformans): 32 µg/mL (≈ 51.6 µM); primary screening: growth inhibition ([7]; C. neoformans): inhibited the growth; MIC [7, 15]: 32 µg/mL (≈ 51.6 µM)
